Literature values in PMC3145338 (Journal of the American Chemical Society, 2011).
pKd: −log10 of the molar value. Where two headings read alike, the source gives them in different places. Marks after values point to notes of the source that are not given here.

Settings: BCA; for pKd: read-out: Kd^surf
[1] = SAM ligand 2, χ = 0.05, ref [Mrskich, 1995]
[2] = SAM ligand 2, ref [Lahiri, 1999a]
[3] = SAM ligand 2, ref [Lahiri, 1999b]

Substance: BCA: bovine carbonic anhydrase
- koff^surf [1]: 5.4 ^e 10^−3 s^−1
- kon^surf [1]: 1.9 ^e 10^4 M^−1 s^−1
- ΔG°surf [1]: −9.0 ^e kcal mol^−1
- koff^surf [2]: 5.3 ^e 10^−3 s^−1
- kon^surf [2]: 3.5 ^e 10^4 M^−1 s^−1
- ΔG°surf [2]: −9.3 ^e kcal mol^−1
- koff^surf [3]: 5.4 ^e 10^−3 s^−1
- kon^surf [3]: 0.9 ^e 10^4 M^−1 s^−1
- ΔG°surf [3]: −8.5 ^e kcal mol^−1
- koff^surf (mixed SAMs χ = 0.05, ref Mrksich et al. [10]): 0.0054 s⁻¹
- pKd [1]: 6.59
- pKd [2]: 6.82
- pKd [3]: 6.25
